These results are taken from patent US20140378679A1, “CRYSTALLINE CARBOHYDRATE DERIVATIVE” (GLYCOM A/S, priority 2008, published 2014).

Data set [1] in a line: Anomeric stability in D2O solution followed by 1H-NMR. It counts as physicochemical. As to conditions: 10 mg in 700 μL D2O, room temperature; 1H-NMR recorded immediately and a day later. The method, then:
10 mg pure α-lactosamine hydrochloride was dissolved in 700 μL D2O, then 1H-NMR spectrum was recorded immediately. A second 1H-NMR spectra was recorded a day later, by which time the clean substance had already anomerized. On first spectrum (FIG. 3, above) at 5.26 ppm the H-1 and at 4.29 ppm the H-1′ can be seen. On the second spectrum (FIG. 3, below) next to the alpha anomer already the beta appears. At 4.78 ppm H-1-beta and at 2.85 ppm H-2-beta can be seen.

SMILES strings stand for the structures.

On to `Cl.N[C@@H]1[C@@H](O)[C@H](O[C@@H]2O[C@H](CO)[C@H](O)[C@H](O)[C@H]2O)[C@@H](CO)O[C@@H]1O` [α-lactosamine hydrochloride], for which the “anomerization of the pure alpha anomer in solution (appearance of beta anomer)” value in data set [1] was “anomerizes at room temperature within one day”. For orientation: melting point means the temperature of the solid-liquid transition. For `Cl.N[C@@H]1[C@@H](O)[C@H](O[C@@H]2O[C@H](CO)[C@H](O)[C@H](O)[C@H]2O)[C@@H](CO)O[C@@H]1O` (hydrate or solvate) [α-lactosamine hydrochloride], the melting point was 174 °C.
